US20260070945A1, “MACROCYCLIC IMMUNOMODULATORS” (Bristol-Myers Squibb Company, priority 2022, published 2026)
Where a SMILES comes first, the peptide text is derived from it. Bridges are numbered along the chain shown (N, C = ends). [ ]: non-standard residue; d: D form. The star is where a group is joined. ξ: configuration not given here. Phe(4-COOH) = N[C@@H](Cc1ccc(C(=O)O)cc1)C(=O)O; Bip = N[C@@H](Cc1ccc(-c2ccccc2)cc1)C(=O)O; Phe(3-Me) = Cc1cccc(C[C@H](N)C(=O)O)c1; hArg = N=C(N)NCCCC[C@H](N)C(=O)O; hhGln = NC(=O)CCCC[C@H](N)C(=O)O; Cha = N[C@@H](CC1CCCCC1)C(=O)O; Cit = NC(=O)NCCC[C@H](N)C(=O)O; Ile(3ξ) = CCC(C)[C@H](N)C(=O)O; Carboxymethyl = O=C(O)C*; NMeA = CN[C@@H](C)C(=O)O; Orn = NCCC[C@H](N)C(=O)O; Aun = NCCCCCCCCCCC(=O)O; Dab = NCC[C@H](N)C(=O)O; Nva = CCC[C@H](N)C(=O)O; Dap = NC[C@H](N)C(=O)O; AEEA = NCCOCCOCC(=O)O

biological target: T1, PD-1/PD-L1 interaction (PE-labeled human PD-L1-Ig binding to Jurkat cell line over-expressing human PD-1) (Homo sapiens, UniProt Q15116); test: Jurkat-PD-1 Cell Binding High-Content Screening Assay (CBA); conditions: Jurkat-hPD-1 cells, PE-labeled PD-L1-Ig 20 nM final; read-out: Jurkat HPD1 PDL1 IC50
T1 construct: expressed in transfected cells; host or cells: Jurkat
T1 sequence (Q15116 25-288): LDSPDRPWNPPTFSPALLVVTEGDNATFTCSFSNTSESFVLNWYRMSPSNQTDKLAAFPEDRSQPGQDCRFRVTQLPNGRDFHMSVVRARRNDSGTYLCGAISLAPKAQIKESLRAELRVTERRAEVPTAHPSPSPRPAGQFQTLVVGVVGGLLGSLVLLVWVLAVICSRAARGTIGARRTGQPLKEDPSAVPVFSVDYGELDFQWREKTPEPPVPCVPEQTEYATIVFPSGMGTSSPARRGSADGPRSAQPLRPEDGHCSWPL
Procedure, shortened: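 Compound is added first to the PD-1-expressing Jurkat cells and held 2 h at 37 °C in serum-containing DMEM. The fluorescent PD-L1 fusion follows at 20 nM final for 1 h. Fixed, Hoechst-stained cells are then imaged for bound label.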

SMILES | IC50 [nM]
CC(C)C[C@@H]1NC(=O)[C@H](Cc2c[nH]c3ccccc23)NC(=O)[C@H](CC(=O)O)NC(=O)[C@H](Cc2ccc(OCC(=O)O)cc2)NC(=O)[C@H](CCCCNC(=N)N)NC(=O)CSC[C@@H](C(=O)NCC(=O)NCCOCCOCC(=O)N[C@@H](CCCN)C(=O)NCCCCCCCCCCC(=O)O)NC(=O)[C@H](CCCNC(N)=O)NC(=O)[C@H](C(C)C)NC(=O)[C@H](CC2CCCCC2)NC(=O)[C@H](CCN)NC(=O)[C@@H](CC(C)C)NC(=O)[C@H](C)N(C)C(=O)[C@H](C(C)C)NC(=O)[C@H](Cc2ccc(-c3ccccc3)cc2)NC1=O [Example 2180] ({CH2CO}-[hArg]Y(Carboxymethyl)DWL[Bip]V[NMeA][dL][Dab][Cha]V[Cit]CG[AEEA][Orn][Aun]-OH; thioether N-14) | 16.3
CC(C)C[C@@H]1NC(=O)[C@H](Cc2c[nH]c3ccccc23)NC(=O)[C@H](CC(=O)O)NC(=O)[C@H](Cc2ccc(OCC(=O)O)cc2)NC(=O)[C@H](CCCCNC(=N)N)NC(=O)CSC[C@@H](C(=O)NCC(=O)NCCOCCOCC(=O)N[C@@H](CCCCN)C(=O)NCCCCCCCCCCC(=O)O)NC(=O)[C@H](CCCNC(N)=O)NC(=O)[C@H](C(C)C)NC(=O)[C@H](CC2CCCCC2)NC(=O)[C@H](CCN)NC(=O)[C@@H](CC(C)C)NC(=O)[C@H](C)N(C)C(=O)[C@H](C(C)C)NC(=O)[C@H](Cc2ccc(-c3ccccc3)cc2)NC1=O [Example 2181] ({CH2CO}-[hArg]Y(Carboxymethyl)DWL[Bip]V[NMeA][dL][Dab][Cha]V[Cit]CG[AEEA]K[Aun]-OH; thioether N-14) | 21.1
CC(C)C[C@@H]1NC(=O)[C@H](Cc2c[nH]c3ccccc23)NC(=O)[C@H](CC(=O)O)NC(=O)[C@H](Cc2ccc(OCC(=O)O)cc2)NC(=O)[C@H](CCCCNC(=N)N)NC(=O)CSC[C@@H](C(=O)NCC(=O)NCCOCCOCC(=O)N[C@@H](CCCNC(N)=O)C(=O)NCCCCCCCCCCC(=O)O)NC(=O)[C@H](CCCNC(N)=O)NC(=O)[C@H](C(C)C)NC(=O)[C@H](CC2CCCCC2)NC(=O)[C@H](CCN)NC(=O)[C@@H](CC(C)C)NC(=O)[C@H](C)N(C)C(=O)[C@H](C(C)C)NC(=O)[C@H](Cc2ccc(-c3ccccc3)cc2)NC1=O [Example 2182] ({CH2CO}-[hArg]Y(Carboxymethyl)DWL[Bip]V[NMeA][dL][Dab][Cha]V[Cit]CG[AEEA][Cit][Aun]-OH; thioether N-14) | 12.3
CC(C)C[C@@H]1NC(=O)[C@H](Cc2c[nH]c3ccccc23)NC(=O)[C@H](CC(=O)O)NC(=O)[C@H](Cc2ccc(OCC(=O)O)cc2)NC(=O)[C@H](CCCCNC(=N)N)NC(=O)CSC[C@@H](C(=O)NCCOCCOCC(=O)N[C@@H](CCCNC(N)=O)C(=O)NCCCCCCCCCCC(=O)O)NC(=O)[C@H](CCCNC(N)=O)NC(=O)[C@H](C(C)C)NC(=O)[C@H](CC2CCCCC2)NC(=O)[C@H](CCN)NC(=O)[C@@H](CC(C)C)NC(=O)[C@H](C)N(C)C(=O)[C@H](C(C)C)NC(=O)[C@H](Cc2ccc(-c3ccccc3)cc2)NC1=O [Example 2183] ({CH2CO}-[hArg]Y(Carboxymethyl)DWL[Bip]V[NMeA][dL][Dab][Cha]V[Cit]C[AEEA][Cit][Aun]-OH; thioether N-14) | 19.2
CCC(C)[C@@H]1NC(=O)[C@H](Cc2ccc(-c3ccccc3)cc2)NC(=O)[C@H](CC(C)C)NC(=O)[C@H](Cc2c[nH]c3ccccc23)NC(=O)[C@H](CC(=O)O)NC(=O)[C@H](Cc2ccc(OCC(=O)O)cc2)NC(=O)[C@H](CCCCNC(=N)N)NC(=O)CSC[C@@H](C(=O)NCCOCCOCC(=O)N[C@@H](CCN)C(=O)NCCCCCCCCCCC(=O)O)NC(=O)[C@H](CCCCN)NC(=O)[C@H](C(C)C)NC(=O)[C@H](CC2CCCCC2)NC(=O)[C@H](CCN)NC(=O)[C@@H](CC(C)C)NC(=O)[C@H](C)N(C)C1=O (stereo partly drawn) [Example 2184] ({CH2CO}-[hArg]Y(Carboxymethyl)DWL[Bip][Ile(3ξ)][NMeA][dL][Dab][Cha]VKC[AEEA][Dab][Aun]-OH; thioether N-14) | 30.2
CCC(C)[C@@H]1NC(=O)[C@H](Cc2ccc(-c3ccccc3)cc2)NC(=O)[C@H](CC(C)C)NC(=O)[C@H](Cc2c[nH]c3ccccc23)NC(=O)[C@H](CC(=O)O)NC(=O)[C@H](Cc2ccc(OCC(=O)O)cc2)NC(=O)[C@H](CCCCNC(=N)N)NC(=O)CSC[C@@H](C(=O)NCCOCCOCC(=O)N[C@@H](CCN)C(=O)NCCCCCCCCCCC(=O)O)NC(=O)[C@H](CCCCN)NC(=O)[C@H](C(C)C)NC(=O)[C@H](CC2CCCCC2)NC(=O)[C@H](CCN)NC(=O)[C@@H](C)NC(=O)[C@H](C)N(C)C1=O (stereo partly shown) [Example 2185] ({CH2CO}-[hArg]Y(Carboxymethyl)DWL[Bip][Ile(3ξ)][NMeA][dA][Dab][Cha]VKC[AEEA][Dab][Aun]-OH; thioether N-14) | 40.2
CC[C@H](C)[C@@H]1NC(=O)[C@H](Cc2ccc(-c3ccccc3)cc2)NC(=O)[C@H](CC(C)C)NC(=O)[C@H](Cc2c[nH]c3ccccc23)NC(=O)[C@H](CC(=O)O)NC(=O)[C@H](Cc2ccc(OCC(=O)O)cc2)NC(=O)[C@H](CCCCNC(=N)N)NC(=O)CSC[C@@H](C(=O)NCCOCCOCC(=O)N[C@@H](CCN)C(=O)NCCCCCCCCCCC(=O)O)NC(=O)[C@H](CCCCN)NC(=O)[C@H](C(C)C)NC(=O)[C@H](CC2CCCCC2)NC(=O)[C@H](CCN)NC(=O)[C@H]2CCCN2C(=O)[C@H](C)N(C)C1=O [Example 2186] ({CH2CO}-[hArg]Y(Carboxymethyl)DWL[Bip]I[NMeA][dP][Dab][Cha]VKC[AEEA][Dab][Aun]-OH; thioether N-14) | 158
CCC[C@@H]1NC(=O)[C@@H](CC(C)C)NC(=O)[C@H](C)N(C)C(=O)[C@H](C(C)C)NC(=O)[C@H](Cc2ccc(-c3ccccc3)cc2)NC(=O)[C@H](CC(C)C)NC(=O)[C@H](Cc2c[nH]c3ccccc23)NC(=O)[C@H](CC(=O)O)NC(=O)[C@H](Cc2ccc(C(=O)O)cc2)NC(=O)[C@H](Cc2ccc(OCC(=O)O)cc2)NC(=O)CSC[C@@H](C(=O)NCCOCCOCC(=O)NCCCCCCCCCCC(=O)O)NC(=O)[C@H](CCCCC(N)=O)NC(=O)[C@H](C(C)C)NC(=O)[C@H](CC2CCCCC2)NC1=O [Example 2187] ({CH2CO}-Y(Carboxymethyl)[Phe(4-COOH)]DWL[Bip]V[NMeA][dL][Nva][Cha]V[hhGln]C[AEEA][Aun]-OH; thioether N-14) | 6.2
CC(C)C[C@@H]1NC(=O)[C@H](Cc2c[nH]c3ccccc23)NC(=O)[C@H](CC(=O)O)NC(=O)[C@H](Cc2ccc(C(=O)O)cc2)NC(=O)[C@H](Cc2ccc(OCC(=O)O)cc2)NC(=O)CSC[C@@H](C(=O)N[C@@H](CCN)C(=O)NCCCCCCCCCCC(=O)O)NC(=O)[C@H](CCCNC(N)=O)NC(=O)[C@H](C(C)C)NC(=O)[C@H](CC2CCCCC2)NC(=O)[C@H](CCN)NC(=O)[C@@H](CC(C)C)NC(=O)[C@H](C)N(C)C(=O)[C@H](C(C)C)NC(=O)[C@H](Cc2ccc(-c3ccccc3)cc2)NC1=O [Example 2188] ({CH2CO}-Y(Carboxymethyl)[Phe(4-COOH)]DWL[Bip]V[NMeA][dL][Dab][Cha]V[Cit]C[Dab][Aun]-OH; thioether N-14) | 12.1
Cc1cccc(C[C@@H]2NC(=O)[C@H](CC(=O)O)NC(=O)[C@H](Cc3ccc(C(=O)O)cc3)NC(=O)[C@H](Cc3ccc(OCC(=O)O)cc3)NC(=O)CSC[C@@H](C(=O)N[C@@H](CCCN)C(=O)NCCCCCCCCCCC(=O)O)NC(=O)[C@H](CO)NC(=O)[C@H](C(C)C)NC(=O)[C@H](CC3CCCCC3)NC(=O)[C@H](CN)NC(=O)[C@@H](CC(C)C)NC(=O)[C@H](C)N(C)C(=O)[C@H](C(C)C)NC(=O)[C@H](Cc3ccc(-c4ccccc4)cc3)NC(=O)[C@H](CC(C)C)NC2=O)c1 [Example 2189] ({CH2CO}-Y(Carboxymethyl)[Phe(4-COOH)]D[Phe(3-Me)]L[Bip]V[NMeA][dL][Dap][Cha]VSC[Orn][Aun]-OH; thioether N-14) | 28.9
CC(C)C[C@H]1NC(=O)[C@H](C)N(C)C(=O)[C@H](C(C)C)NC(=O)[C@H](Cc2ccc(-c3ccccc3)cc2)NC(=O)[C@H](C(C)C)NC(=O)[C@H](Cc2c[nH]c3ccccc23)NC(=O)[C@H](CC(=O)O)NC(=O)[C@H](Cc2ccc(OCC(=O)O)cc2)NC(=O)[C@H](CCCCNC(=N)N)NC(=O)CSC[C@@H](C(=O)N[C@@H](CCN)C(=O)NCCCCCCCCCCC(=O)O)NC(=O)[C@H](CO)NC(=O)[C@H](C(C)C)NC(=O)[C@H](CC2CCCCC2)NC(=O)[C@H](CCN)NC1=O [Example 2191] ({CH2CO}-[hArg]Y(Carboxymethyl)DWV[Bip]V[NMeA][dL][Dab][Cha]VSC[Dab][Aun]-OH; thioether N-14) | 13.4
CC(C)C[C@@H]1NC(=O)[C@H](Cc2c[nH]c3ccccc23)NC(=O)[C@H](CC(=O)O)NC(=O)[C@H](Cc2ccc(C(=O)O)cc2)NC(=O)[C@H](Cc2ccc(OCC(=O)O)cc2)NC(=O)CSC[C@@H](C(=O)N[C@@H](CCN)C(=O)NCCOCCOCC(=O)NCCCCCCCCCCC(=O)O)NC(=O)[C@H](CCCCN)NC(=O)[C@H](C(C)C)NC(=O)[C@H](CC2CCCCC2)NC(=O)[C@H](CCN)NC(=O)[C@@H](CC(C)C)NC(=O)[C@H](C)N(C)C(=O)[C@H](C(C)C)NC(=O)[C@H](Cc2ccc(-c3ccccc3)cc2)NC1=O [Example 2192] ({CH2CO}-Y(Carboxymethyl)[Phe(4-COOH)]DWL[Bip]V[NMeA][dL][Dab][Cha]VKC[Dab][AEEA][Aun]-OH; thioether N-14) | 7.6
CC(C)C[C@@H]1NC(=O)[C@H](Cc2c[nH]c3ccccc23)NC(=O)[C@H](CC(=O)O)NC(=O)[C@H](Cc2c[nH]cn2)NC(=O)[C@H](CCCCNC(=N)N)NC(=O)CSC[C@@H](C(=O)N[C@@H](CCN)C(=O)NCCCCCCCCCCC(=O)O)NC(=O)[C@H](CCCCN)NC(=O)[C@H](C(C)C)NC(=O)[C@H](CC2CCCCC2)NC(=O)[C@H](CCN)NC(=O)[C@@H](CC(C)C)NC(=O)[C@H](C)N(C)C(=O)[C@H](C(C)C)NC(=O)[C@H](Cc2ccc(-c3ccccc3)cc2)NC1=O [Example 2194] ({CH2CO}-[hArg]HDWL[Bip]V[NMeA][dL][Dab][Cha]VKC[Dab][Aun]-OH; thioether N-14) | 39.6
